According to patent US20240116877A1, “KIT KINASE INHIBITORS AND METHODS OF USE THEREOF” (Deciphera Pharmaceuticals, LLC, priority 2021, published 2024):
Read-outs that look alike come from different tables or passages of the source.

Columns and labels:
Ba/F3 KIT mutant cells = test: Ba/F3 mutant KIT Cell Proliferation Assays (resazurin); format: cell-based; details: Mus musculus, BaF3
Outline: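 IC50 values come from resazurin fluorescence (ex 540, em 600) after 5 h dye exposure, added as a 440 μM solution. Cells were IL-3-independent Ba/F3 expressing mutant KIT from a lentiviral vector, puromycin-selected.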

c-KIT kinase (uKIT) = c-KIT kinase (uKIT) (Homo sapiens (Human), UniProt P10721); test: Biochemical Assay for uKIT (coupled pyruvate kinase/lactate dehydrogenase assay); details: Inhibition of biochemical activity of uKIT kinase; 1 mM ATP
Outline: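 IC50 from percent inhibition of reaction rate over 2-3 h, relative to no-compound and known-inhibitor controls. KIT enzyme (16 nM or 4.36 nM, two sequences) ran with 1 mM ATP and 0.7 mg/mL PE4Y in Tris pH 7.5, 30° C; ATP turnover coupled to NADH loss at 340 nm.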

GIST 430 cells = test: GIST 430 Cell Proliferation Assay (resazurin); format: cell-based; details: Homo sapiens; GIST430 cell proliferation
Outline: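 Five thousand cells per well were exposed to serially diluted compound in complete growth medium for 115 h at 37 degrees Celsius, 5% CO2. Resazurin was then added for a further 5 h, fluorescence read at 540 nm excitation/600 nm emission, and IC50 values calculated.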

[1] = Ba/F3 KIT AYdup-V654A mutant cell proliferation, read-out: AYdup-V654A IC50
[2] = Ba/F3 KIT exon11del-V654A mutant cell proliferation, read-out: exon11del-V654A IC50
[3] = Ba/F3 KIT exon11del-Y823D mutant cell proliferation, read-out: exon11del-Y823D IC50
[4] = Ba/F3 KIT AYdup mutant cell proliferation, read-out: AYdup IC50
[5] = Ba/F3 KIT AYdup-D816G mutant cell proliferation, read-out: AYdup-D816G IC50

c-KIT kinase (uKIT), sequence (P10721 other isoform, or with tags, fused parts or gaps): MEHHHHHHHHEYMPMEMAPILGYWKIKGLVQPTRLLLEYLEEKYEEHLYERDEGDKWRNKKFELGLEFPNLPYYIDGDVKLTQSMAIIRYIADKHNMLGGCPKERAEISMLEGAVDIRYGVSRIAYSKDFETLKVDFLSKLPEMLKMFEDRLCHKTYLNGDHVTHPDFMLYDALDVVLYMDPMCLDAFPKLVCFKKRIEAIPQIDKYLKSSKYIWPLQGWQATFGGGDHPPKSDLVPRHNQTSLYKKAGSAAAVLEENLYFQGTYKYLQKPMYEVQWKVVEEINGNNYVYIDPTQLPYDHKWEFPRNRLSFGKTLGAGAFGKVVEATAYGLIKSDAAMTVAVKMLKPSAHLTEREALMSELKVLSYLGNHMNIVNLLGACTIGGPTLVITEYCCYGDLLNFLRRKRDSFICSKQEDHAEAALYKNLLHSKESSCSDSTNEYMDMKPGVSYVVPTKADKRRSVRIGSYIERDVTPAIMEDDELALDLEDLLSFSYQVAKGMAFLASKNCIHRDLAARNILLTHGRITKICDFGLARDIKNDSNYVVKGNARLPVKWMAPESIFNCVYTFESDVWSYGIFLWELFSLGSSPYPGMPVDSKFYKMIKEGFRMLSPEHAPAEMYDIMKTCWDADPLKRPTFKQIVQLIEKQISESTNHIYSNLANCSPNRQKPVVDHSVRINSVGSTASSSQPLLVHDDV

SMILES | IC50 (Ba/F3 KIT mutant cells; [1]) [nM] | IC50 (Ba/F3 KIT mutant cells; [2]) [nM] | IC50 (Ba/F3 KIT mutant cells; [3]) [nM] | IC50 (c-KIT kinase (uKIT)) [nM] | IC50 (GIST 430 cells) [nM] | IC50 (Ba/F3 KIT mutant cells; [4]) [nM] | IC50 (Ba/F3 KIT mutant cells; [5]) [nM]
COCCOc1cc(F)c2c(Nc3ccc(NC(=O)NC(=O)CC4(C(F)(F)F)COC4)cc3)ncnc2c1 [Example 137] | 10 to 100 | 10 to 100 | > 1000 | 10 to 100 | 10 to 100 |  | 
CC(C)(F)CCNC(=O)Nc1ccc(Nc2ncnc3cc(OC4CCOCC4)cc(F)c23)cc1 [Example 138] | 10 to 100 | ≤ 10 | 100 to 1000 | ≤ 10 | 10 to 100 | ≤ 10 | 10 to 100
COCCOc1cc(F)c2c(Nc3ccc(NC(=O)CC(=O)N4CC(C)(C)C4)cc3)ncnc2c1 [Example 139] | 10 to 100 | ≤ 10 | > 1000 | 10 to 100 | 10 to 100 | ≤ 10 | 10 to 100
COCCOc1cc(F)c2c(Nc3ccc(NC(=O)CC(=O)N4CCCC4(C)C)cc3)ncnc2c1 [Example 140] | 10 to 100 | 10 to 100 | 100 to 1000 | 10 to 100 | 10 to 100 |  | 
COCCOc1cc(F)c2c(Nc3ccc(NC(=O)CC(=O)N4CCC(C)(C)C4)cc3)ncnc2c1 [Example 141] | 10 to 100 | ≤ 10 | 10 to 100 | 10 to 100 | 10 to 100 | ≤ 10 | 10 to 100
COCCOc1cc(F)c2c(Nc3ccc(NC(=O)CC(=O)N4CCCCC4(C)C)cc3)ncnc2c1 [Example 142] | 10 to 100 | 10 to 100 | 10 to 100 | 10 to 100 | 10 to 100 |  | 
COCCOc1cc(F)c2c(Nc3ccc(NC(=O)CC(=O)N(C)C(C)(C)C)cc3)ncnc2c1 [Example 143] | 10 to 100 | ≤ 10 | 10 to 100 | 10 to 100 | ≤ 10 | ≤ 10 | 10 to 100
COCCOc1cc(F)c2c(Nc3ccc(NC(=O)CC(=O)NC4(C)COC4)cc3)ncnc2c1 [Example 144] | 100 to 1000 | 100 to 1000 |  | 100 to 1000 | 100 to 1000 |  | 
CC(C)(C)CNC(=O)CC(=O)Nc1ccc(Nc2ncnc3cc(OCCN4CCOCC4)cc(F)c23)cc1 [Example 145] | 10 to 100 | ≤ 10 | 10 to 100 | 10 to 100 | 10 to 100 | ≤ 10 | 10 to 100
CCN(C(=O)CC(=O)Nc1ccc(Nc2ncnc3cc(OCCOC)cc(F)c23)cc1)C(C)C [Example 146] | 100 to 1000 | 10 to 100 |  | 100 to 1000 | 100 to 1000 |  | 
CNC(=O)COc1cc(F)c2c(Nc3ccc(NC(=O)NCCC(C)(C)F)cc3)ncnc2c1 [Example 147] | 100 to 1000 | 10 to 100 | > 1000 | 10 to 100 | 100 to 1000 |  | 
CN(C)C(=O)COc1cc(F)c2c(Nc3ccc(NC(=O)NCCC(C)(C)F)cc3)ncnc2c1 [Example 148] | 100 to 1000 | 10 to 100 |  | 10 to 100 | 100 to 1000 |  | 
CC(C)(F)CCNC(=O)Nc1ccc(Nc2ncnc3cc(OC[C@@H]4CCOC4)cc(F)c23)cc1 [Example 149] | 10 to 100 | 10 to 100 | 10 to 100 | ≤ 10 | 10 to 100 |  | 
CC(C)(F)CCNC(=O)Nc1ccc(Nc2ncnc3cc(OCCN4CCCC4)cc(F)c23)cc1 [Example 150] | 10 to 100 | 10 to 100 | 100 to 1000 | ≤ 10 | 10 to 100 | ≤ 10 | 10 to 100
CC(C)(F)CCNC(=O)Nc1ccc(Nc2ncnc3cc(OC[C@H]4CCOC4)cc(F)c23)cc1 [Example 151] | 10 to 100 | 10 to 100 | 100 to 1000 | ≤ 10 | 10 to 100 |  | 
COCCOc1cc(F)c2c(Nc3ccc(NC(=O)CC(=O)N4CCC(C)(C)CC4)cc3)ncnc2c1 [Example 152] | 10 to 100 | 10 to 100 | 100 to 1000 | 10 to 100 | 10 to 100 |  | 
COCCOc1cc(F)c2c(Nc3ccc(NC(=O)CC(=O)N4CCC(C(F)(F)F)C4)cc3)ncnc2c1 (centres unmarked) [Example 153] | 10 to 100 | 100 to 1000 | 100 to 1000 | 10 to 100 | 10 to 100 |  | 
COCCOc1cc(F)c2c(Nc3ccc(NC(=O)CC(=O)N4CCOCC4(C)C)cc3)ncnc2c1 [Example 154] | 100 to 1000 | 100 to 1000 | 100 to 1000 | 10 to 100 | 10 to 100 |  | 

SMILES | IC50 (Ba/F3 KIT mutant cells; [1]) [nM] | IC50 (Ba/F3 KIT mutant cells; [2]) [nM] | IC50 (Ba/F3 KIT mutant cells; [3]) [nM] | IC50 (c-KIT kinase (uKIT)) [nM] | IC50 (GIST 430 cells) [nM] | IC50 (Ba/F3 KIT mutant cells; [4]) [nM] | IC50 (Ba/F3 KIT mutant cells; [5]) [nM]
COC[C@@H](C)Oc1cc(F)c2c(Nc3ccc(NC(=O)NCCC(C)(C)F)cc3)ncnc2c1 [Example 155] | 10 to 100 | 10 to 100 | 100 to 1000 | ≤ 10 | 100 to 1000 |  | 
CO[C@H](C)COc1cc(F)c2c(Nc3ccc(NC(=O)NCCC(C)(C)F)cc3)ncnc2c1 [Example 156] | 10 to 100 | 10 to 100 | 10 to 100 | ≤ 10 | 10 to 100 | ≤ 10 | 10 to 100
COC[C@H](C)Oc1cc(F)c2c(Nc3ccc(NC(=O)NCCC(C)(C)F)cc3)ncnc2c1 [Example 157] | 100 to 1000 | 100 to 1000 | 100 to 1000 | 10 to 100 | 100 to 1000 |  | 
CC(C)(F)CCNC(=O)Nc1ccc(Nc2ncnc3cc(OCCCN4CCCC4)cc(F)c23)cc1 [Example 158] | ≤ 10 | 10 to 100 | 10 to 100 | ≤ 10 | 10 to 100 | ≤ 10 | ≤ 10
CC(C)(F)CCNC(=O)Nc1ccc(Nc2ncnc3cc(OCCC4COC4)cc(F)c23)cc1 [Example 159] | 10 to 100 | 10 to 100 | 10 to 100 | ≤ 10 | 10 to 100 |  | 
CC(C)(F)CCNC(=O)Nc1ccc(Nc2ncnc3cc(OC[C@H]4CCCO4)cc(F)c23)cc1 [Example 161] | ≤ 10 | 10 to 100 | 10 to 100 | ≤ 10 | 10 to 100 | ≤ 10 | 10 to 100
CC(C)(F)CCNC(=O)Nc1ccc(Nc2ncnc3cc(OC[C@@H]4CCCO4)cc(F)c23)cc1 [Example 162] | 10 to 100 | 10 to 100 | 10 to 100 | ≤ 10 | 10 to 100 | ≤ 10 | 10 to 100
COCCOc1cc(F)c2c(Nc3ccc(NC(=O)CC(=O)N(C(C)C)C(C)C)cc3)ncnc2c1 [Example 163] | 100 to 1000 | > 1000 | 100 to 1000 | 100 to 1000 | 100 to 1000 |  | 
COCCOc1cc(F)c2c(Nc3ccc(NC(=O)CC(=O)N4CCC(F)(F)CC4)cc3)ncnc2c1 [Example 164] | 100 to 1000 | 100 to 1000 | 100 to 1000 | 10 to 100 | 10 to 100 |  | 
COCCOc1cc(F)c2c(Nc3ccc(NC(=O)CC(=O)N4CCCC(F)(F)C4)cc3)ncnc2c1 [Example 165] | 10 to 100 | 100 to 1000 | 100 to 1000 | 10 to 100 | 10 to 100 |  | 
COCCOc1cc(F)c2c(Nc3ccc(NC(=O)CC(=O)N4CCCC(C)(C)C4)cc3)ncnc2c1 [Example 166] | 10 to 100 | 10 to 100 | 10 to 100 | 10 to 100 | 10 to 100 |  | 
COCCOc1cc(F)c2c(Nc3ccc(NC(=O)CC(=O)N4CCC4(C)C)cc3)ncnc2c1 [Example 167] | 10 to 100 | 100 to 1000 | 100 to 1000 | 10 to 100 | 10 to 100 |  | 
COCCOc1cc(F)c2c(Nc3ccc(NC(=O)CC(=O)NC4CCC4(C)C)cc3)ncnc2c1 (centres unmarked) [Example 168] | 10 to 100 | 10 to 100 | 10 to 100 | 10 to 100 | ≤ 10 |  | 
COCCOc1cc(F)c2c(Nc3ccc(NC(=O)CC(=O)N4CCCC4C(F)(F)F)cc3)ncnc2c1 (centres unmarked) [Example 169] | 10 to 100 | 100 to 1000 | 100 to 1000 | 10 to 100 | 10 to 100 |  | 
COCCOc1cc(F)c2c(Nc3ccc(NC(=O)CC(=O)N4CCCC[C@@H]4C(F)(F)F)cc3)ncnc2c1 [Example 170] | 10 to 100 | 10 to 100 | 10 to 100 | 10 to 100 | 10 to 100 |  | 
COCCOc1cc(F)c2c(Nc3ccc(NC(=O)CC(=O)N4CCCC[C@H]4C(F)(F)F)cc3)ncnc2c1 [Example 171] | 10 to 100 | 10 to 100 | ≤ 10 | 10 to 100 | 10 to 100 |  | 
CN1CC[C@H](Oc2cc(F)c3c(Nc4ccc(NC(=O)NCCC(C)(C)F)cc4)ncnc3c2)C1 [Example 172] | 10 to 100 | 10 to 100 | 10 to 100 | 10 to 100 | 10 to 100 |  | 
CN1CC[C@@H](Oc2cc(F)c3c(Nc4ccc(NC(=O)NCCC(C)(C)F)cc4)ncnc3c2)C1 [Example 173] | 10 to 100 | 10 to 100 | 10 to 100 | ≤ 10 | 10 to 100 |  | 
